Measured values: patent publication US10053468B2, “Heterocyclic compound” (TAKEDA PHARMACEUTICAL COMPANY LIMITED, priority 2013, dated 2018)
Read-outs that look alike come from different tables or passages of the source.

How the values were obtained:
RORγt [1] = target: T1, RORγt (Homo sapiens, UniProt P51449); assay: RORγt binding test using fluorescent-labeled synthetic ligand (TR-FRET); conditions: read-out: Binding inhibitory rate of fluorescent-labeled synthetic ligand to RORγt at test compound 1 μM (%)
T1 sequence (P51449 1-497 isoform P51449-2): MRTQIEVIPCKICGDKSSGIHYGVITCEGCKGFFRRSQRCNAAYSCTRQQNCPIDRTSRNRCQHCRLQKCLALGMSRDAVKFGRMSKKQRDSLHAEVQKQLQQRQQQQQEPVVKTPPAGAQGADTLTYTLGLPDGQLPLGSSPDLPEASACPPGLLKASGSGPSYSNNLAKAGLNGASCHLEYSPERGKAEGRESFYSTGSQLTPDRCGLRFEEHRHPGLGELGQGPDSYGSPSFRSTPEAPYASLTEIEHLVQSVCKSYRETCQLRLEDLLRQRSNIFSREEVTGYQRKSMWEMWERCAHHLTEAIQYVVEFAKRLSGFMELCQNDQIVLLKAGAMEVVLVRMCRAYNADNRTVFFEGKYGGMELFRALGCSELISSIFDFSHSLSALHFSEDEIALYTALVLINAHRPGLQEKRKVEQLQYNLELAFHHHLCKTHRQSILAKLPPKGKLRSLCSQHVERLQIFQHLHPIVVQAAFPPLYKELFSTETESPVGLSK
Protocol: RORγt Binding Test Using Fluorescent-labeled Synthetic Ligand
(§1) The binding activity of the test compound to RORγt was measured by a time resolved fluorescence resonance energy transfer method (TR-FRET) utilizing histidine-tagged RORγt, fluorescent-labeled synthetic ligand, and terbium-labeled anti-histidine tag antibody (Invitrogen). First, a test compound diluted with an assay buffer (20 mM Tris-HCl (pH 7.5), 100 mM NaCl, 1 mM DTT, 0.1% BSA) was added to a 384 well plate by 3 μL. Then, RORγt diluted with an assay buffer to 240 nM was added by 3 μL, after which fluorescent-labeled synthetic ligand diluted with the assay buffer to 12 μM was added by 3 μL, and the mixture was stood at room temperature for 20 min. Thereafter, a terbium-labeled anti-histidine tag antibody diluted with the assay buffer to 8 nM was added by 3 μL. The mixture was stood at room temperature for 20 min, and fluorescence intensity (excitation wavelength 320 nm, fluorescence wavelength 520 nm, delay time 100 microseconds) was measured by Envision (PerkinElmer).

RORγt [2] = target: T1, RORγt; assay: Cofactor recruitment test (Alpha Screen, biotinylated SRC-1 peptide); type: biochemical; conditions: read-out: Signal value inhibitory rate at test compound 1 μM (%)
Protocol: Cofactor Recruitment Test
Cofactor recruitment test was performed by Alpha Screen (Histidine Detection Kit, PerkinElmer) method. First, a test compound was diluted with an assay buffer (50 mM Tris-HCl (pH 7.5), 50 mM KCl, 1 mM DTT, 0.1% BSA) and added to a 384 well plate by 5 μL. […] The mixture was stood in a dark place for 1 hr, and the signal value was measured by Envision (PerkinElmer).

RORγt [3] = target: T1, RORγt; assay: RORγt binding test using fluorescent-labeled cholesterol (TR-FRET); conditions: read-out: Binding inhibitory rate of fluorescent-labeled cholesterol to RORγt at test compound 1 μM (%)
Protocol: RORγt Binding Test Using Fluorescent-labeled Cholesterol
as §1, with “cholesterol (BODIPY-cholesterol, AVIVA),” for “synthetic ligand,”, “cholesterol” for “synthetic ligand”

RORγt [4] = target: T1, RORγt; assay: Jurkat reporter test (human IL-17 ROR response element luciferase, RORγt vector); type: cell-based; conditions: read-out: Luminescence level inhibitory rate at test compound 3 μM (%)
Protocol: The Jurkat cells used for the reporter test were cultured in a culture medium (RPMI (Invitrogen), 10% FCS (AusGeneX), 100 U/mL penicillin, 100 μg/mL streptomycin). On the day of the test, 4×10^7 cells were recovered by a centrifugal operation (1000 rpm, 5 min.) and suspended in PBS (phosphate buffered saline) (Invitrogen). Thereafter, the cells were recovered again by a centrifugal operation, and suspended in 2 mL of R buffer (NEON transfection kit, Invitrogen). […] Gene transfer was performed by Electroporation apparatus (NEON, Invitrogen) under the conditions of pulse voltage 1350 V, interval 10 milliseconds, number of times 3. The cells after gene transfer were suspended in 40 mL of a reaction medium (RPMI, 10% Lipid reduced FCS (HyClone), 10 mM HEPES (pH 7.5), 100 U/mL penicillin, 100 μg/mL streptomycin, 5 μM lovastatin), and plated in a 96 well plate by 90 μL. A test compound diluted with the reaction medium was added by 10 μL, and the cells were cultured overnight in an incubator. Bright-Glo (Promega) was added by 100 μL, and the mixture was stirred at room temperature for 10 min, and the luminescence level was measured by Envision (PerkinElmer).

[5] = test compound 3 μM, Jurkat cells

inhibition at 3 µM (RORγt [4]; [5])	SMILES	inhibition at 1 µM (RORγt [1])	inhibition at 1 µM (RORγt [2])	inhibition at 1 µM (RORγt [3])	inhibition at 3 µM (RORγt [4]; Jurkat)
	CC[Si](C)(C)c1c(F)cc(NC(=O)[C@H]2c3ccc(OC)cc3CCN2C(=O)Cc2cc(O)no2)cc1F [Example 88, (1R)-N-(4-(ethyl (dimethyl)silyl)-3,5-difluorophenyl)-2-((3-hydroxy-1,2-oxazol-5-yl)acetyl)-6-methoxy-1,2,3,4-tetrahydroisoquinoline-1-carboxamide]	102%			
	CC[Si](C)(C)c1c(F)cc(NC(=O)[C@H]2c3ccc(COC)nc3CCN2C(=O)c2cc(O)no2)cc1F [Example 174, (5R)-N-(4-(ethyl (dimethyl)silyl)-3,5-difluorophenyl)-6-((3-hydroxy-1,2-oxazol-5-yl)carbonyl)-2-(methoxymethyl)-5,6,7,8-tetrahydro-1,6-naphthyridine-5-carboxamide]		88%	101%	98%
	CCOc1ccc2c(c1)CCN(C(=O)CCC(=O)O)[C@H]2C(=O)Nc1cc(F)c([Si](C)(C)C)c(F)c1 [Example 180, 4-((1R)-1-((3,5-difluoro-4-(trimethylsilyl)phenyl)carbamoyl)-6-ethoxy-3,4-dihydroisoquinolin-2(1H)-yl)-4-oxobutanoic acid]	101%	93%		100%
99%	CCOc1ccc2c(c1)CCN(C(=O)CCCC(=O)O)[C@H]2C(=O)Nc1cc(F)c2c(c1)CCC2(C)C [Example 182, 5-((1R)-6-ethoxy-1-((7-fluoro-1,1-dimethyl-2,3-dihydro-1H-inden-5-yl)carbamoyl)-3,4-dihydroisoquinolin-2(1H)-yl)-5-oxopentanoic acid]	101%	67%		
	CCOc1ccc2c(c1)CCN(C(=O)CCCC(=O)O)[C@H]2C(=O)Nc1ccc([Si](C)(C)C)c(F)c1 [Example 183, 5-((1R)-6-ethoxy-1-((3-fluoro-4-(trimethylsilyl)phenyl)carbamoyl)-3,4-dihydroisoquinolin-2 (1H)-yl)-5-oxopentanoic acid]	101%	91%		102%
	CCOc1ccc2c(c1)CCN(C(=O)CCCC(=O)O)[C@H]2C(=O)Nc1cc(F)c([Si](C)(C)C)cc1F [Example 184, 5-((1R)-1-((2,5-difluoro-4-(trimethylsilyl)phenyl)carbamoyl)-6-ethoxy-3,4-dihydroisoquinolin-2(1H)-yl)-5-oxopentanoic acid]	101%	93%		100%
	C[Si](C)(C)c1ccc(NC(=O)[C@H]2c3ccc(OC(F)F)cc3CCN2C(=O)CCCC(=O)O)cc1F [Example 194, 5-((1R)-6-(difluoromethoxy)-1-((3-fluoro-4-(trimethylsilyl)phenyl)carbamoyl)-3,4-dihydroisoquinolin-2(1H)-yl)-5-oxopentanoic acid]	101%	87%		100%
	C[Si](C)(C)c1c(F)cc(NC(=O)[C@H]2c3ccc(OC(F)F)cc3CCN2C(=O)CCC(=O)O)cc1F [Example 195, 4-((1R)-6-(difluoromethoxy)-1-((3,5-difluoro-4-(trimethylsilyl)phenyl)carbamoyl)-3,4-dihydroisoquinolin-2 (1H)-yl)-4-oxobutanoic acid]	101%	89%		101%
	C[Si](C)(C)c1c(F)cc(NC(=O)[C@H]2c3ccc(OC(F)F)cc3CCN2C(=O)CCCC(=O)O)cc1F [Example 196, 5-((1R)-6-(difluoromethoxy)-1-((3,5-difluoro-4-(trimethylsilyl)phenyl)carbamoyl)-3,4-dihydroisoquinolin-2 (1H)-yl)-5-oxopentanoic acid]	102%	91%		100%
	CCOc1ccc2c(c1)CCN(C(=O)[C@H](O)CCC(=O)O)[C@H]2C(=O)Nc1cc(F)c([Si](C)(C)C)c(F)c1 [Example 209, (4R)-5-((1R)-1-((3,5-difluoro-4-(trimethylsilyl)phenyl)carbamoyl)-6-ethoxy-3,4-dihydroisoquinolin-2(1H)-yl)-4-hydroxy-5-oxopentanoic acid]	102%	87%		99%
98%	CCOc1ccc2c(c1)CCN(C(=O)CCCCC(=O)O)[C@H]2C(=O)Nc1cc(F)c2c(c1)CCC2(C)C [Example 210, 6-((1R)-6-ethoxy-1-((7-fluoro-1,1-dimethyl-2,3-dihydro-1H-inden-5-yl)carbamoyl)-3,4-dihydroisoquinolin-2(1H)-yl)-6-oxohexanoic acid]	101%	76%		
	CCOc1ccc2c(c1)CCN(C(=O)CCCCC(=O)O)[C@H]2C(=O)Nc1ccc([Si](C)(C)C)c(F)c1 [Example 211, 6-((1R)-6-ethoxy-1-((3-fluoro-4-(trimethylsilyl)phenyl)carbamoyl)-3,4-dihydroisoquinolin-2 (1H)-yl)-6-oxohexanoic acid]	101%	92%		101%
	CCOc1ccc2c(c1)CCN(C(=O)CCCC(=O)O)[C@H]2C(=O)Nc1ccc([Si](C)(C)C)c(C#N)c1 [Example 221, 5-((1R)-1-((3-cyano-4-(trimethylsilyl)phenyl)carbamoyl)-6-ethoxy-3,4-dihydroisoquinolin-2(1H)-yl)-5-oxopentanoic acid]	102%	97%		101%
	CCOc1ccc2c(c1)CCN(C(=O)NCCC(=O)O)[C@H]2C(=O)Nc1cc(F)c([Si](C)(C)C)c(F)c1 [Example 227, N-(((1R)-1-((3,5-difluoro-4-(trimethylsilyl)phenyl)carbamoyl)-6-ethoxy-3,4-dihydroisoquinolin-2(1H)-yl)carbonyl)-beta-alanine]	102%	95%		101%
	CCOc1ccc2c(c1)CCN(C(=O)N1CC(CC(=O)O)C1)[C@H]2C(=O)Nc1cc(F)c([Si](C)(C)C)c(F)c1 [Example 231, (1-(((1R)-1-((3,5-difluoro-4-(trimethylsilyl)phenyl)carbamoyl)-6-ethoxy-3,4-dihydroisoquinolin-2(1H)-yl)carbonyl)azetidin-3-yl)acetic acid]	101%	96%		101%
